Measurements: the supplement of paper PMC10307832

Legend:
Assay in all cases: relative viability (nuclei count vs DMSO), 5 days (fraction); higher = more cells survive
BAY61-3606 + OSI-027 = compound: COC1=C(C=C(C=C1)C2=CC3=NC=CN3C(=N2)NC4=C(C=CC=N4)C(=O)N)OC [BAY61-3606] + COc1cccc2cc(-c3nc([C@H]4CC[C@H](C(=O)O)CC4)n4ncnc(N)c34)[nH]c12 [OSI-027] (partner 0.5 µM)
In short: (§1)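 Relative viability equals treated-well nuclei counts divided by vehicle-well nuclei counts. Counts came from 4× images of lung cancer cell lines grown in 1536-well plates for 5 days after pin-tool dosing on the day after seeding. Dosing used one drug alone or a fixed anchor-drug dose plus five library-drug doses (not always all listed) in √10 steps, and values are medians of duplicate plates.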

BAY61-3606 + Crizotinib = compound: COC1=C(C=C(C=C1)C2=CC3=NC=CN3C(=N2)NC4=C(C=CC=N4)C(=O)N)OC [BAY61-3606] + C[C@@H](Oc1cc(-c2cnn(C3CCNCC3)c2)cnc1N)c1c(Cl)ccc(F)c1Cl [Crizotinib] (partner 1 µM)
In short: as §1

BAY61-3606 + Decitabine = compound: COC1=C(C=C(C=C1)C2=CC3=NC=CN3C(=N2)NC4=C(C=CC=N4)C(=O)N)OC [BAY61-3606] + Nc1ncn([C@H]2C[C@H](O)[C@@H](CO)O2)c(=O)n1 [Decitabine] (partner 2 µM)
In short: as §1

Doxorubicin + OSI-027 = compound: COc1cccc2c1C(=O)c1c(O)c3c(c(O)c1C2=O)C[C@@](O)(C(=O)CO)C[C@@H]3O[C@H]1C[C@H](N)[C@H](O)[C@H](C)O1 [Doxorubicin] + COc1cccc2cc(-c3nc([C@H]4CC[C@H](C(=O)O)CC4)n4ncnc(N)c34)[nH]c12 [OSI-027] (partner 0.5 µM)
In short: as §1

Row | Cell Line | relative viability (BAY61-3606 + OSI-027; first compound 0.02 µM) | relative viability (BAY61-3606 + OSI-027; first compound 0.06325 µM) | relative viability (BAY61-3606 + OSI-027; first compound 0.2 µM) | relative viability (BAY61-3606 + OSI-027; first compound 0.6325 µM) | relative viability (BAY61-3606 + OSI-027; first compound 2 µM) | relative viability (BAY61-3606 + Crizotinib; first compound 0.02 µM) | relative viability (BAY61-3606 + Crizotinib; first compound 0.06325 µM) | relative viability (BAY61-3606 + Crizotinib; first compound 0.2 µM) | relative viability (BAY61-3606 + Crizotinib; first compound 0.6325 µM) | relative viability (BAY61-3606 + Crizotinib; first compound 2 µM) | relative viability (BAY61-3606 + Decitabine; first compound 0.02 µM) | relative viability (BAY61-3606 + Decitabine; first compound 0.06325 µM) | relative viability (BAY61-3606 + Decitabine; first compound 0.2 µM) | relative viability (BAY61-3606 + Decitabine; first compound 0.6325 µM) | relative viability (BAY61-3606 + Decitabine; first compound 2 µM) | relative viability (Doxorubicin + OSI-027; first compound 0.001 µM) | relative viability (Doxorubicin + OSI-027; first compound 0.003162 µM) | relative viability (Doxorubicin + OSI-027; first compound 0.01 µM) | relative viability (Doxorubicin + OSI-027; first compound 0.03162 µM) | relative viability (Doxorubicin + OSI-027; first compound 0.1 µM)
1 | NCI-H1993 | 0.586 | 0.583 | 0.505 | 0.564 | 0.587 | 0.949 | 0.87 | 0.807 | 0.827 | 0.636 | 0.632 | 0.622 | 0.542 | 0.536 | 0.601 | 0.591 | 0.58 | 0.542 | 0.515 | 0.498
2 | CAL-12T | 0.674 | 0.593 | 0.616 | 0.605 | 0.269 | 0.619 | 0.537 | 0.493 | 0.364 | 0.205 | – | – | – | – | – | 0.609 | 0.695 | 0.515 | 0.194 | 0.146
3 | NCI-H1623 | 0.417 | 0.427 | 0.504 | 0.418 | 0.412 | – | – | – | – | – | – | – | – | – | – | 0.388 | 0.41 | 0.462 | 0.434 | 0.423
4 | HCC-78 | 0.411 | 0.393 | 0.404 | 0.351 | 0.427 | 0.385 | 0.308 | 0.317 | 0.343 | 0.367 | 0.643 | 0.676 | 0.798 | 0.722 | 0.857 | 0.433 | 0.384 | 0.329 | 0.354 | 0.318
5 | EKVX | 0.862 | 0.696 | 0.734 | 0.554 | 0.631 | 0.972 | 0.868 | 0.976 | 1.15 | 0.806 | 0.362 | 0.344 | 0.318 | 0.349 | 0.328 | 0.727 | 0.66 | 0.702 | 0.639 | 0.695
6 | NCI-H1666 | 0.817 | 0.84 | 0.824 | 0.894 | 0.841 | 1.13 | – | 0.782 | 0.968 | 0.969 | 0.784 | 0.655 | 0.658 | 0.737 | 0.686 | 0.778 | 0.736 | 0.547 | 0.45 | 0.486
7 | NCI-H2170 | 0.693 | 0.65 | 0.8 | 0.776 | 0.597 | 1.27 | 1.27 | 1.19 | 1.16 | 0.87 | 0.449 | 0.529 | 0.485 | 0.462 | 0.429 | 0.25 | 0.809 | 0.745 | 0.614 | 0.795
8 | NCI-H1734 | 0.605 | 0.523 | 0.529 | 0.542 | 0.372 | 0.635 | 0.53 | 0.601 | 0.674 | 0.272 | 0.551 | 0.512 | 0.503 | 0.504 | 0.388 | 0.799 | 0.6 | 0.594 | 0.395 | 0.432
9 | Calu-6 | – | – | – | – | – | 0.765 | 0.77 | 0.67 | 0.732 | 0.352 | – | – | – | – | – | – | – | – | – | –
10 | EBC-1 | – | – | – | – | – | 0.2 | 0.195 | 0.23 | 0.16 | 0.224 | – | – | – | – | – | – | – | – | – | –
11 | NCI-H596 | 0.699 | 0.535 | 0.647 | 0.711 | 0.462 | 0.969 | 1.01 | 1.08 | 1.19 | 0.931 | 1.06 | 0.967 | 1.14 | 0.965 | 1.08 | 0.578 | 0.801 | 0.799 | 0.647 | 0.721
12 | A-427 | 0.538 | 0.44 | 0.479 | 0.542 | 0.476 | 0.85 | 0.767 | 0.878 | 0.97 | 0.845 | 0.579 | 0.561 | 0.565 | 0.611 | 0.622 | 0.427 | 0.506 | 0.429 | 0.43 | 0.442
13 | NCI-H3122 | 1.02 | 0.922 | 0.891 | 1.27 | 0.847 | 0.252 | 0.286 | 0.279 | 0.272 | 0.219 | 0.463 | 0.559 | 0.494 | 0.347 | 0.511 | 0.489 | 0.89 | 0.819 | 0.382 | 0.314
14 | NCI-H1437 | 0.941 | 0.924 | 0.921 | 0.936 | 0.784 | 0.973 | 0.961 | 0.854 | 0.984 | 0.797 | 0.579 | 0.602 | 0.564 | 0.563 | 0.582 | 0.828 | 0.916 | 0.842 | 0.698 | 0.351
15 | SK-MES-1 | 0.604 | 0.674 | 0.56 | 0.706 | 0.405 | 1.01 | 0.971 | 0.962 | 0.966 | 0.876 | 0.37 | 0.342 | 0.377 | 0.382 | 0.348 | 0.637 | 0.719 | 0.516 | 0.174 | 0.129
16 | HCC-366 | 1.07 | 0.875 | 0.81 | 0.862 | 0.715 | 0.506 | 0.495 | 0.566 | 0.461 | 0.162 | 0.379 | 0.433 | 0.396 | 0.354 | 0.296 | – | 1.01 | 0.934 | 0.85 | 0.423
17 | NCI-H2347 | 0.492 | 0.365 | 0.457 | 0.487 | 0.281 | 0.749 | 0.589 | 0.781 | 0.848 | 0.756 | 0.731 | 0.63 | 0.599 | 0.698 | 0.666 | 0.469 | 0.405 | 0.433 | 0.523 | 0.35
18 | IA-LM | – | – | – | – | – | 1.04 | 0.865 | – | 0.987 | 0.67 | – | – | – | – | – | – | – | – | – | –
